Experimental findings from the supplement of paper PMC13380429 are described below.

What all share (conditions): 72 h
Assay [1] has as its system HepG2. Kind of assay: drug sensitivity score (DSS) for viability; higher = more toxic; extreme values may be limits of the assay.
Assay [2] relates to Calu-3. Described as above.
Assay [3] concerns Caco-2. The description is as above.
Assay [4] concerns HepG2. Kind of assay: relative viability EC50 (midpoint between 100% and the lowest measured viability); higher = less toxic.
Assay [5] relates to Calu-3. The assay is described as above.
Assay [6] deals with Caco-2. The assay is described as above.
Assay [7] relates to HepG2. Nature of the assay: cell viability relative to DMSO; higher = less toxic.
Assay [8] has as its system Calu-3. Described as above.
Assay [9] relates to Caco-2. The assay is described as above.
Assay [10] concerns Vero E6. Kind of assay: drug sensitivity score (DSS) for viability; higher = more toxic; extreme values may be limits of the assay.
Assay [11] concerns U2OS. The assay is described as above.
Assay [12] deals with U2OS. Nature of the assay: relative viability EC50 (midpoint between 100% and the lowest measured viability); higher = less toxic.
Assay [13] concerns Vero E6. Nature of the assay: cell viability relative to DMSO; higher = less toxic.
Assay [14] concerns U2OS. The assay is described as above.

In the case of `NS(=O)(=O)c1ccc(C(=O)O)cc1` [carzenide], the drug sensitivity score with HepG2 [1], in the assay with Calu-3 [2] and with Caco-2 [3] was 0 throughout. Moreover, the “relative viability EC50” value in the assay with HepG2 [4], in the assay with Calu-3 [5] and in the assay on Caco-2 [6] was over 10 µM in each case. Moreover, the cell viability in the assay with HepG2 [7] (1 nM) stood at 97.6%; in the assay on HepG2 [7] (10 nM) it was 99.8%; in the assay on HepG2 [7] (100 nM), 102%; in the assay on HepG2 [7] (1000 nM) it was 102%; in the assay on HepG2 [7] (10000 nM), 94.9%; in the assay on Calu-3 [8] (1 nM), 106%. Moreover, the cell viability with Calu-3 [8] (10 nM) stood at 101%; with Calu-3 [8] (100 nM) it was 93.4%; with Calu-3 [8] (1000 nM), 100%; in the assay with Calu-3 [8] (10000 nM), 94.2%; in the assay on Caco-2 [9] (1 nM), 106%; in the assay on Caco-2 [9] (10 nM) it was 96.1%. The cell viability in the assay on Caco-2 [9] (100 nM) worked out at 112%; with Caco-2 [9] (1000 nM), 106%; in the assay with Caco-2 [9] (10000 nM) it was 96.9%.

With `CCOP(=S)(OCC)Oc1ccc2c(C)c(Cl)c(=O)oc2c1` [coumophos], the drug sensitivity score in the assay on Vero E6 [10], with HepG2 [1], in the assay with Calu-3 [2] and in the assay on U2OS [11] was 0 throughout.

On to `CC(=O)C1=C(O)[C@@H]2[C@H]3c4c[nH]c5cccc(c45)C[C@H]3C(C)(C)N2C1=O` [cyclopiazonic-acid], for which the drug sensitivity score with Vero E6 [10] was found to be 2.4; in the assay with HepG2 [1] it was 2.1; in the assay with Calu-3 [2] it was 0; in the assay with Caco-2 [3] it was 0.3; with U2OS [11], 0.4. Also, the “relative viability EC50” value with Calu-3 [5], with Caco-2 [6] and with U2OS [12] was over 10 µM in each case. Moreover, the cell viability in the assay on Vero E6 [13] (1 nM) came out at 100%; with Vero E6 [13] (10 nM) it was 96.5%; in the assay on Vero E6 [13] (100 nM), 94.3%; in the assay on Vero E6 [13] (1000 nM), 95.3%; in the assay on Vero E6 [13] (10000 nM), 65.6%; in the assay on HepG2 [7] (1 nM), 110%. The cell viability in the assay with HepG2 [7] (10 nM) came to 105%; with HepG2 [7] (100 nM), 103%; with HepG2 [7] (1000 nM) it was 97.2%; in the assay with HepG2 [7] (10000 nM) it was 64.3%; in the assay on Calu-3 [8] (1 nM), 105%; with Calu-3 [8] (10 nM), 98.1%. The cell viability with Calu-3 [8] (100 nM) turned out to be 102%; in the assay with Calu-3 [8] (1000 nM) it was 95.7%; in the assay on Calu-3 [8] (10000 nM), 98.8%; in the assay on Caco-2 [9] (1 nM), 99.9%; in the assay with Caco-2 [9] (10 nM) it was 106%; in the assay with Caco-2 [9] (100 nM), 107%. Moreover, the cell viability came to 106% in the assay with Caco-2 [9] (1000 nM); 81.9% with Caco-2 [9] (10000 nM); 102% with U2OS [14] (1 nM); 100% in the assay with U2OS [14] (10 nM); 100% in the assay with U2OS [14] (100 nM); 96.2% in the assay with U2OS [14] (1000 nM). The cell viability with U2OS [14] (10000 nM) is 86.1%.

As to `O=C(NO)c1ccc(O)c(O)c1` [didox], the drug sensitivity score in the assay with HepG2 [1], in the assay on Calu-3 [2] and with Caco-2 [3] was 0 each time. Also, the “relative viability EC50” value in the assay with HepG2 [4], in the assay on Calu-3 [5] and in the assay on Caco-2 [6] was over 10 µM throughout. The cell viability in the assay on HepG2 [7] (1 nM) was 102%; in the assay on HepG2 [7] (10 nM), 102%; with HepG2 [7] (100 nM) it was 93.3%; with HepG2 [7] (1000 nM) it was 118%; in the assay on HepG2 [7] (10000 nM), 93.2%; in the assay with Calu-3 [8] (1 nM), 111%. Besides, the cell viability with Calu-3 [8] (10 nM) is 110%; with Calu-3 [8] (100 nM), 96.6%; in the assay with Calu-3 [8] (1000 nM), 103%; in the assay with Calu-3 [8] (10000 nM) it was 107%; in the assay with Caco-2 [9] (1 nM) it was 101%; in the assay on Caco-2 [9] (10 nM), 96.9%. Further, the cell viability with Caco-2 [9] (100 nM) amounted to 100%; with Caco-2 [9] (1000 nM) it was 86.7%; in the assay with Caco-2 [9] (10000 nM), 104%.

Turning to `CCS(=O)(=O)c1ccc2oc(-c3ccc4ccccc4c3)nc2c1` [ezutromid], the drug sensitivity score turned out to be 0 in the assay on HepG2 [1], 0.7 with Caco-2 [3] and 0 with U2OS [11]. For the same compound, the “relative viability EC50” value with HepG2 [4], in the assay with Caco-2 [6] and in the assay on U2OS [12] was over 10 µM each time. The cell viability in the assay with HepG2 [7] (1 nM) is 99.8%; in the assay with HepG2 [7] (10 nM), 121%; in the assay on HepG2 [7] (100 nM), 102%; in the assay on HepG2 [7] (1000 nM), 102%; with HepG2 [7] (10000 nM), 94.3%; in the assay on Caco-2 [9] (1 nM), 103%. Moreover, the cell viability turned out to be 89% with Caco-2 [9] (10 nM); 91.4% with Caco-2 [9] (100 nM); 91.8% in the assay with Caco-2 [9] (1000 nM); 90.2% in the assay with Caco-2 [9] (10000 nM); 101% with U2OS [14] (1 nM); 97.7% in the assay with U2OS [14] (10 nM). Moreover, the cell viability came to 105% with U2OS [14] (100 nM), 97.4% in the assay with U2OS [14] (1000 nM) and 97.2% in the assay on U2OS [14] (10000 nM).
